Test results taken from ChEMBL document CHEMBL1129234, “Synthesis of phosphorus-containing amino acid analogs as inhibitors of nitric oxide synthase” (Bioorg Med Chem Lett, 1996).

Experiments:
[1] = target: T1, Nitric oxide synthase, inducible (Mus musculus, UniProt P29477); test: Compound was tested in vitro for inhibitory activity against inducible nitric oxide synthase
T1 sequence (P29477 whole entry): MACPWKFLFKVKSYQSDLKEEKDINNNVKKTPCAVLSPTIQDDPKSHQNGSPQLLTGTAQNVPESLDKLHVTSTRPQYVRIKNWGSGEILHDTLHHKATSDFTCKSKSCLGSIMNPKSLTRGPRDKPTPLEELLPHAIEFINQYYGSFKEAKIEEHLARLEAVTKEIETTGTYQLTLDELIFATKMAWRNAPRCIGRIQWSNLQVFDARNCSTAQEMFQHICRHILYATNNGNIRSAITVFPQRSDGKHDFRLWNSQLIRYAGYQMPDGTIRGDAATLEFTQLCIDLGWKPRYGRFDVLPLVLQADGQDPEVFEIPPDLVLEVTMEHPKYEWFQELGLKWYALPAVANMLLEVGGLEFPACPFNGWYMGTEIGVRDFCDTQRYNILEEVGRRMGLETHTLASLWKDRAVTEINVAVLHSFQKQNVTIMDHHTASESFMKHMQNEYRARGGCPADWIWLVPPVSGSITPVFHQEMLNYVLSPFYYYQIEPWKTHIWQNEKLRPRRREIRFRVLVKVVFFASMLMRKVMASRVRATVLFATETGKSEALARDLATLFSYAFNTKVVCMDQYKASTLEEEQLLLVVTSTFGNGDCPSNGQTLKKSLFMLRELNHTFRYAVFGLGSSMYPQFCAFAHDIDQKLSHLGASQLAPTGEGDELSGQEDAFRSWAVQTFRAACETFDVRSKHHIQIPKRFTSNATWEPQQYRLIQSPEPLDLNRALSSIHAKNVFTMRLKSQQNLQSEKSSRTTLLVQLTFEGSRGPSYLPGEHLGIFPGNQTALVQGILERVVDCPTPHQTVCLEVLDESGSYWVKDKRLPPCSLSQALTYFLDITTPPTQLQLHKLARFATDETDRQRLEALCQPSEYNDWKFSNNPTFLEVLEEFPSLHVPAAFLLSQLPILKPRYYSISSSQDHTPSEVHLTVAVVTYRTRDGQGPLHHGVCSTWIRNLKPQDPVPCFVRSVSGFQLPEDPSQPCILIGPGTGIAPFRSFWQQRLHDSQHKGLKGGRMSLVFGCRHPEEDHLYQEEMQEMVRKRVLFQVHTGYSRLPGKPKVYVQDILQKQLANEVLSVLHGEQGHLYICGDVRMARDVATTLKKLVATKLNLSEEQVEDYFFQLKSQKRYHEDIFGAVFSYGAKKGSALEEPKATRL

Nitric oxide synthase 1 = Nitric oxide synthase 1 (Rattus norvegicus, UniProt P29476); test: Compound was tested in vitro for inhibitory activity against nNOS (constitutive isoform found in neurons)
Chain of Nitric oxide synthase 1 (P29476 whole entry, canonical isoform): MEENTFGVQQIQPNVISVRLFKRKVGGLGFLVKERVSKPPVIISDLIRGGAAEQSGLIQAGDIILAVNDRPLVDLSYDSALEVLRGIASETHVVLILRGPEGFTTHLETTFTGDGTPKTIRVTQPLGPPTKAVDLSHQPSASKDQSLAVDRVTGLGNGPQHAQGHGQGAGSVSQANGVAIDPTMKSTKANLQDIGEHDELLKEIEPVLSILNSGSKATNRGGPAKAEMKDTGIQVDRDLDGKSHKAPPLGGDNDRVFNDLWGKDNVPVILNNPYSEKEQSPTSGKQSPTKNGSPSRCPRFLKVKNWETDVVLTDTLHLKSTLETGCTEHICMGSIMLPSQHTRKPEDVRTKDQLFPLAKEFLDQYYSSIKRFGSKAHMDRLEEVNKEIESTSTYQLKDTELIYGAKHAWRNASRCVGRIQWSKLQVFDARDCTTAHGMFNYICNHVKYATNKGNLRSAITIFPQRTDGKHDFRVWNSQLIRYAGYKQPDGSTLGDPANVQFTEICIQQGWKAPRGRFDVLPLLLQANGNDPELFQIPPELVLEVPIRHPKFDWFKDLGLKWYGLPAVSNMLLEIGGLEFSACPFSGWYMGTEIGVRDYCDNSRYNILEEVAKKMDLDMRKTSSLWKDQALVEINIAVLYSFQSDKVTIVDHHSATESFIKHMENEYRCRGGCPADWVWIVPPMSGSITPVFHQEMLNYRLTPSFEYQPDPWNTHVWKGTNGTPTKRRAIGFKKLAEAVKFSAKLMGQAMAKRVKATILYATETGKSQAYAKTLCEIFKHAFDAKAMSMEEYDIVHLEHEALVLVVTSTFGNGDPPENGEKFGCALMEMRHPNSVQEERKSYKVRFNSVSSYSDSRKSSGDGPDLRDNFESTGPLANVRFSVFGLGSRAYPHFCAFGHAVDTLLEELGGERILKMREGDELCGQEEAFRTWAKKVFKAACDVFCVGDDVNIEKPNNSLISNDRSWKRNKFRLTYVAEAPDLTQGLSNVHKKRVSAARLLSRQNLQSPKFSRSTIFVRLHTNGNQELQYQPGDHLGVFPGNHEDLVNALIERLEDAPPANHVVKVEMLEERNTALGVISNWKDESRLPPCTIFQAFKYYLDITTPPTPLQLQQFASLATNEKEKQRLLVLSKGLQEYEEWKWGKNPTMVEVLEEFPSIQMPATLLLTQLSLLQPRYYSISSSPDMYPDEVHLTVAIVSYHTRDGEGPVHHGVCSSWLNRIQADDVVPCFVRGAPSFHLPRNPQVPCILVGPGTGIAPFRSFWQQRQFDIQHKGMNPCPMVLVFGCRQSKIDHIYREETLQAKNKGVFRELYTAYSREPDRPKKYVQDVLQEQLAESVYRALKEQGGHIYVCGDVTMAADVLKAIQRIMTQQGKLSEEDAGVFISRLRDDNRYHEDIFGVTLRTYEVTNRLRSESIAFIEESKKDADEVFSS

Question: With `N/C(=N/CCCC(N)P(=O)(O)O)N[N+](=O)[O-]` (stereo not drawn) as the compound, how does the IC50 [1] read?
Answer: The IC50 was over 100 µM.

Question: What about the IC50 (Nitric oxide synthase 1) of the same compound?
Answer: The IC50 was over 100 µM.

Question: How did the IC50 [1] turn out when `CNC(=N)NCCCC(N)[PH](=O)O` (stereo not drawn) was run?
Answer: The IC50 was over 100 µM.

Question: What about the IC50 (Nitric oxide synthase 1) of the same compound?
Answer: Its IC50 is 100 µM.

Question: `N=C(N)NCCCC(N)P(=O)(O)O` (stereo not drawn) was tested. Which IC50 [1] did it give?
Answer: The IC50 was over 100 µM.

Question: What about the IC50 (Nitric oxide synthase 1) of the same compound?
Answer: Its IC50 is over 100 µM.

Question: Which IC50 [1] does the source give for `CNC(=N)NCCCC(N)P(=O)(O)O` (stereo not drawn) here?
Answer: Its IC50 is over 100 µM.

Question: And the IC50 (Nitric oxide synthase 1)?
Answer: Its IC50 is over 100 µM.

Question: `NC(N)=NCCCC(N)[PH](=O)O` (stereo not drawn) was tested. Which IC50 [1] did it give?
Answer: Its IC50 is over 100 µM.

Question: What about the IC50 (Nitric oxide synthase 1) of the same compound?
Answer: Its IC50 is over 100 µM.

Question: Which IC50 [1] does the source give for `N/C(=N/CCCC(N)[PH](=O)O)N[N+](=O)[O-]` (stereo not drawn) here?
Answer: The IC50 was over 100 µM.

Question: And the IC50 (Nitric oxide synthase 1)?
Answer: The IC50 was 45 µM.

Question: Which IC50 [1] does the source give for `N=C(NCCC[C@H](N)C(=O)O)N[N+](=O)[O-]` [NITROARGININE] here?
Answer: Its IC50 is 10 µM.
